Reference: ChEMBL document CHEMBL1123175, “Synthesis and biological activity of several amino nucleoside-platinum(II) complexes” (1986)

What was measured:
L1210 [1] = assay: Compound was tested for the inhibition of the transport of methionine into L1210 cells at the 10 uM concentration after <20 min; type: functional; conditions: Mus musculus
L1210 [2] = assay: Compound was tested for the inhibition of the transport of aminoisobutyric acid into L1210 cells at the 10 uM concentration after <20 min; type: functional; conditions: Mus musculus

| Sequence | inhibition (L1210 [1]) [%] | inhibition (L1210 [2]) [%] |
| --- | --- | --- |
| TRANSPLATIN | < 5 | < 5 |
| CISPLATIN | 10 | 15 |
